Laboratory results from patent US20250312408A1, “NAP FOR SEX-SPECIFIC TREATMENT OF DISEASES” (RAMOT AT TEL-AVIV UNIVERSITY LTD., priority 2021, published 2025).
Like-named read-outs stand apart in the source and are kept apart here.

What was measured:
PSP patients [1] = assay: Phase 2/3 davunetide vs placebo trial in PSP, re-evaluated separating males and females; format: in vivo, human
Procedure: In this example we used results of a clinical trial performed as described in Boxer et al. Shortly, in a double blind, parallel group, phase 2/3 trial, participants were randomly assigned with permuted blocks in a 1:1 ratio to davunetide (NAP, having amino acid sequence […] set forth as SEQ ID NO: 1, 30 mg twice daily, intranasally) or placebo for 52 weeks at 48 centers in Australia, Canada, France, Germany, the UK, and the USA. Participants met the modified Neuroprotection and Natural History in Parkinson Plus Syndrome study criteria for PSP. Primary endpoints were the change from baseline in PSP Rating Scale (PSPRS, 28 items, 6 categories, 0=normal, 100=most disability) and Schwab and England Activities of Daily Living scale (SEADL, 11-point rating scale, 0=vegetative, 100%/=completely independent, 10% increments) at up to 52 weeks. Data collection was at week 0, 6, 13, 26, 39 and 52. All participants and study personnel were masked to treatment assignment. Analysis was by intention to treat. The trial is registered with Clinicaltrials.gov, number NCT01110720. 313 participants were randomly assigned to davunetide (n=157) or to placebo (n=156), and 241 (77%) completed the study (118 and […] in the davunetide and placebo groups, respectively). A secondary outcome was brain ventricular volume as measured with boundary shift integral analysis of T1-weighted magnetic resonance imaging (MRI) scans, mostly collected at week 0 and 52. At the same time, selected patients were also subjected to lumbar puncture and assessment of Tau content and Tau hyperphosphorylation in the cerebrospinal fluid (CSF).
To further understand disease progression, sex/age/baseline differences and drug influence, we re-evaluated study results, separating males and females, and assessing the primary and secondary endpoints. In this respect, we further assessed individually the 6 disability domains of the PSPRS, namely: daily activities (by history, seven items with a total maximum score of 24), behavior (mentation, emotional, interference with activity of daily living, maximum score of 16), bulbar (speech and swallowing, maximal score of 8), ocular motor (eye and eyelid activity, 16 points), limb motor (fine motor skills including tremor, 16 points) and gait/midline (gross motor skills, 20 points) https://www.physio-pedia.com/Progressive_Supranuclear_Palsy_Rating_Scale_(PSP-RS).
Statistical considerations: To include the ventricle volumetric measures, the cohort was composed of female and male PSP patients treated with davunetide or placebo (sample sizes for sex-treatment groups at 52 weeks of treatment: 48-55), outcome variables included ventricular volume (will be referred to as volume), PSPRS and SEADL assessed at study initiation and follow up to 52 weeks after twice daily treatment.
Data analysis was performed using Graph Pad Prism 7.0 software (see FIGS. 1 and 4). Other statistical tests and visualizations were made in R version 4.2.1 (2022-06-23) with the base library, ggplot2 and ggplot2 extension packages. Correlation plots statistics (FIGS. 2, 3 and 5) were computed using the standard Pearson method. The volume change (from FIG. 3) is the difference between the baseline and week-52 measurements. PSPRS, SEADL and ventricular volume in figures (FIG. 5) are represented by differences between the baseline and week-52 measurements, as a percentage of the baseline measurement. FIGS. 6 and 7 give the absolute changes overtime, due to the non-normal distribution of most parameters, statistical significance was measured using the Wilcoxon test. Only extreme values (defined as 3*IQR deviation from the penultimate top/bottom quantiles), were removed from the final calculations. There were only 11 observations that were considered extreme and their influence on our results was insignificant. FIG. 8 representing the geriatric depression scale measure (GDS) was prepared using excel.

[2] = test system: subjects suffering from amnestic mild cognitive impairment (aMCI); assay: aMCI clinical trial, CANTAB Delayed Match-to-Sample (DMTS) test, men and women analysed separately; format: in vivo, human; settings: for effect of treatment on aMCI symptoms: males, 30 mg/day; for DMTS change vs placebo, Student's t test: men only
Procedure: The subject's task is to select the pattern that matches the original sample, here depicted after a 12 s interval. Thus, subjects suffering from aMCI were treated with either 5 mg daily or 15 mg twice daily (BID) by intranasal davunetide administration (1 or three puffs of the same strength davunetide solution). Treatment was for 12 weeks and testing was at baseline and every four weeks, including also 4 weeks after cessation of treatment. When analyzing the data, we separated here men and women for the first time as outlined below. […] We further conclude that much higher dose are required, especially in females.

[3] = test system: subjects with schizophrenia; assay: Schizophrenia clinical trial, UCSD Performance-based Skills Assessment (UPSA), analysed separately for males and females; format: in vivo, human
Procedure: Briefly, sixty-three subjects with schizophrenia received davunetide at one of two different doses (5, 30 mg/day) or placebo for 12 weeks in a multicenter, double-blind, parallel-group randomized clinical trial. The MATRICS Consensus Cognitive Battery (MCCB) assessed cognitive effects. The UCSD Performance-based Skills Assessment (UPSA) with maximal score of 100 and the Schizophrenia Cognition Rating Scale (SCoRS) assessed functional capacity. Subjects continued their current antipsychotic treatment during the trial. For UPSA, there was a significant main effect of treatment across study arms (p=0.048). Between-group effect size (d) values were 0.74 and 0.48, favoring the 5 and 30 mg doses, respectively.
Considering the results obtained for PSP and the involvement of ADNP in both diseases, we analyzed the data separately for males and females with 7-16 subjects per group. […] All in all, the 5 mg daily dose was beneficial for women as detected after 6 and 12 weeks of treatment.

Hace1 = assay: Hippocampal RNA sequencing of Adnp mutated (HTR (Tyr)) mice; format: in vivo
Text: In this model, gait deficits were accentuated in females, and ameliorated by NAP treatment. We discovered a surprising mirror imaging in NAP peptide (davunetide) brain (hippocampus) action in the treated mice as a dependence on mice sex. […] Hace1 is associated with ataxia and Huntington disease and is also involved in depression and Alzheimer's disease. NAP protection (FIG. 11) further attests to sex-dependent treatments of the diseases associated or mediated with Hace1.

[4] = test system: subjects suffering from amnestic mild cognitive impairment (aMCI); settings: sexes not separated; cited from earlier work
[5] = test system: subjects with schizophrenia; settings: cited from earlier work; for UPSA score vs placebo (Javitt et al.): 5 mg daily dose; for UPSA between-group effect size (d): 12 weeks, men and women mixed (Javitt et al.)
[6] = test system: Adnp mutated (HTR (Tyr)) mice; settings: deficits accentuated in females (Karmon et al.); cited from earlier work
PSP patients [7] = settings: cited from earlier work; for PSP trial outcome, sexes not separated (Boxer et al.): 30 mg twice daily, 52 weeks, whole population
[8] = males, from week 26 on, 30 mg twice daily
[9] = woman cohort, very few individuals, exploratory

CC[C@H](C)[C@H](NC(=O)[C@H](CO)NC(=O)[C@@H](NC(=O)[C@@H]1CCCN1C(=O)[C@H](C)NC(=O)[C@@H](N)CC(N)=O)C(C)C)C(=O)N1CCC[C@H]1C(=O)N[C@@H](CCC(N)=O)C(=O)O [davunetide]
CGIds (Clinical Global Impression of Disease Severity) (PSP patients [1]; davunetide-treated males, P=0.013): deteriorated | adverse effects on all other PSPRS domains (PSP patients [1]; females): no adverse effects | ventricular volume increase correlating with baseline ventricular volume (PSP patients [1]; females, 30 mg twice daily intranasally, 52 weeks): complete protection | PSPRS change vs placebo (PSP patients [1]; females, 52 weeks, 30 mg twice daily): trended toward significant improvement | disease progression in PSPRS mental behavior domain (PSP patients [1]; females, over 52 weeks): almost halted | SEADL change from baseline vs placebo (PSP patients [1]; females, starting at week 39 and continuing on 52, P=0.0187 and P=0.00537): significant protective effect | effect on oculomotor activities (PSPRS domain) (PSP patients [1]; females, week 6, P=0.0127): transient adverse effect | GDS score (geriatric depression) compared to placebo (PSP patients [1]; females, week 52, Wilcoxon, P=0.023): improved significantly | bulbar domain of the PSPRS (dysarthria, dysphagia) vs placebo (PSP patients [1]; females, week 52, P=0.0222): significant protective effect | limb motor skills (PSPRS domain) vs placebo (PSP patients [1]; females, P=0.0838): partially protected | ventricular volume change vs baseline ventricular volume (PSP patients [1]; males, 30 mg twice daily intranasally, 52 weeks): no drug effects | PSPRS change compared to the placebo group (PSP patients [1]; [8]): significant increase in PSPRS | SEADL change compared to the placebo group (PSP patients [1]; [8]): decrease in SEADL | percent of baseline ventricular volume change with age vs placebo (PSP patients [1]; men, 30 mg twice daily intranasally, 52 weeks): No differences | percent of baseline ventricular volume change with age vs placebo (PSP patients [1]; men, 30 mg twice daily intranasally, 52 weeks, listed as NAP peptide): not observed in males | phosphorylated Tau in the cerebrospinal fluid (CSF) compared to placebo (PSP patients [1]; [9]): trends in total Tau and phosphorylated Tau reduction | total Tau in the cerebrospinal fluid (CSF) compared to placebo (PSP patients [1]; [9]): trends in total Tau and phosphorylated Tau reduction | percent of baseline ventricular volume change with age vs placebo (PSP patients [1]; women (older woman patients), 30 mg twice daily intranasally, 52 weeks): significant neuroprotective effect | percent of baseline ventricular volume change with age vs placebo (PSP patients [1]; women (older woman patients), 30 mg twice daily intranasally, 52 weeks, listed as NAP peptide): reduced the increase in the size of brain ventricles | effect of treatment on aMCI symptoms ([2]; listed as NAP): significant improvement | effect of treatment on aMCI symptoms ([2]; listed as NAP peptide): statistically significant effect | DMTS change vs placebo, Student's t test ([2]; test week 8): significant difference | DMTS change vs placebo, Student's t test ([2]; week 4 and 16): trending | UPSA change, average ([3]; men, 5 mg daily): 7.4 points | effect on UPSA ([3]; men, 5 mg daily, especially after 6 weeks): effective | effect on UPSA ([3]; men, 15 mg twice daily (30 mg/day), 12 weeks): significant results | effect on UPSA ([3]; men, 15 mg twice daily (30 mg/day), 12 weeks, listed as NAP): significant improvement | UPSA change, mean ([3]; women, 5 mg daily, 12 weeks): 14.9 points | effect on UPSA ([3]; women, 5 mg daily, after 6 and 12 weeks): beneficial | UPSA improvement ([3]; women, 5 mg daily, after 12 weeks): 15% | effect on UPSA ([3]; women, 15 mg twice daily (30 mg/day), week 12, vs 5 mg/day P=0.002): significantly lower effect | effect on UPSA ([3]; women, 15 mg twice daily (30 mg/day), week 12, vs 5 mg/day P=0.002, listed as NAP): not observed | Hace1 gene/mRNA intron retention event (aberrant alternative splicing) (Hace1; ADNP mutated HTR males, brain hippocampal samples): corrected | Hace1 expression as a consequence of NAP treatment (Hace1; male vs female Adnp mutated mice, hippocampus): sex-specific opposite expression | cognitive score in aMCI (Morimoto et al.) [4]: cognitive score enhancement | UPSA score vs placebo (Javitt et al.) ([5]; sexes mixed): significantly more effective | UPSA score vs placebo (Javitt et al.) ([5]; sexes mixed, listed as NAP): significantly higher | UPSA between-group effect size (d) ([5]; 5 mg dose): 0.74 | UPSA score vs 5 mg daily dose and placebo (Javitt et al.) ([5]; 30 mg (15 mg twice daily), sexes mixed): insignificantly different | UPSA between-group effect size (d) ([5]; 30 mg dose): 0.48 | daily living activities in schizophrenia patients (Javitt et al.) ([5]; sexes mixed): protection of daily living activities | gait deficits [6]: ameliorated | PSP trial outcome, sexes not separated (Boxer et al.) (PSP patients [7]): did not meet its endpoints | PSP trial outcome, sexes not separated (Boxer et al.) (PSP patients [7]; listed as Davunetide): not an effective treatment | safety in the PSP trial (Boxer et al.) (PSP patients [7]; in vivo): showing safety
